{"source": "patent US9867869B2", "about": "“Insulin derivatives for diabetes treatment” (Massachusetts Institute of Technology, priority 2012, dated 2018)", "key": {"[1]": {"assay": "11B NMR complexation efficiency with 4-carboxyphenylboronic acid", "type": "physicochemical", "details": "PBS 0.1M, 37° C.", "method": "^11B NMR spectra were recorded on a VARIAN Inova-500 spectrometer operated at 160.3 MHz with gXH switchable broadband probe installed. Samples at a concentration of 10 mM were transferred to a 5 mm Norell natural quartz NMR tube (Sigma-Aldrich). Diols and 4-carboxyphenylboronic acids were co-dissolved in phosphate buffer, 0.1 M at pH 7.4 or 8.5 and tested at 37° C.\nPBA is known to recognize and bind to compounds containing 1,2- and 1,3-diol residues via the formation of a boronate ester [Wang et al., Curr. Org. Chem. 2002, 6, 1285-1317]. At aqueous conditions the boronate ester is a dynamic complex. […] In order to achieve this goal, a variety of commercially available azido substituted diols were tested for their ability to complex with PBA. […] In addition, the effect of azide group on the binding with PBA is unknown. Therefore, 4 commercially available azido diols (FIGS. 16A to 16D) were selected for testing based on their diverse structures. These compounds include azido-substituted monosaccharides (A and C), disaccharide (B), oligosaccharide (C), adenosine (D) and dopamine (E). The complexation between 4-carboxyphenylboronic acid and above materials was evaluated using ^11B NMR (FIG. 16, Table 1).\nThe chemical shift of boron in PBA changes when it is complexed with a diol. […] Therefore, the efficiency of complexation was estimated by monitoring the ratio of these two peaks. The effect of pH on complexation and structure of diols was studied."}, "[2]": {"assay": "11B NMR complexing efficiency with 4NBA", "type": "physicochemical", "details": "for Diol-PBA Complex %: 4NBA, pH 8.5, PBA:Diol 1:1, acetonitrile/PBS, room temperature; for degree of complexation with 4NBA: pH and equivalence not stated", "method": "(§1) Direct complexation of DP3-Insulin was carried out at an aqueous/organic 2/1 v/v solution in order to enable co-solubility with hydrophobic phenylboronic acids. Equal molar quantities of 4NBA and DP3-Insulin (0.5 mM) were dissolved in 2:1 acetonitrile:PBS and then the pH was modified to 7.5 or 8.5 by adding calculated amount of concentrated NaOH solution. The obtained complex was immediately frozen in liquid nitrogen and then freeze dried to generate a white solid. Similarly, selected diols (glucose, fructose, 4EC, 2HA, Azido-6-glactose, DP1-peptide and DP3-peptide) were formulated via the direct method. In order to validate formation of a complex 4NBA-diols, 1TBA-solids obtained by the direct method, as well as, their organic/aqueous solutions (prior to freeze drying) were analyzed with ^11B NMR and via FTIR.\n(§2) 1TBA and 4NBA complexing efficiency with selected diols was measured in similar conditions but at a mixture of acetonitrile/PBS 2:1, according to the direct formulation procedure. Solid PBA-DIOL complexes were evaluated in DMSO. Data were analyzed with VNMR 6.1c software. Chemical shifts are reported in parts per million (ppm) on the δ scale."}, "[3]": {"assay": "11B NMR complexing efficiency with 1TBA", "type": "physicochemical", "method": "as §1, §2"}, "[4]": {"assay": "Solubility of hydrophobic PBA as function of glucose or fructose concentration", "type": "physicochemical", "details": "PBS with 0-1000 mg/dL glucose or fructose, 6 hours, RT", "method": "FIGS. 19A and 19B are graphs showing hydrophobic PBAs (1TBA, 4DBA and 4NBA) tested as a function of glucose (A) and fructose (B) concentrations in PBS. 10 mg of solid, hydrophobic PBA were dispersed in […] of phosphate buffer saline containing various concentrations of glucose and fructose; samples were mixed for 6 hours at room temperature, centrifuged, and aliquots were quantified against a calibration curve using reverse phase HPLC.\n2.14. Solubility of Hydrophobic PBA as Function of Glucose or Fructose Concentration. 10 mg of Hydrophobic PBA (4DBA, 1TBA and 4NBA) were suspended in 40 ml vials containing phosphate buffer saline with various concentrations of glucose or fructose (0-1000 mg/dL); samples were mixed for 6 hours at RT. The solid suspension was centrifuged and aliquots were evaluated for PBA concentration. Analytical HPLC (Agilent 1200) was used to analyze samples. 2.15 Diol-Insulin Analogs PBA Affinity Test"}, "[5]": {"assay": "11B NMR stability of 4NBA:diol complexes in phosphate buffer", "details": "suspended in PBS, after 24 hr, pH 7.4, 37° C.", "method": "FIG. 18 is a graph showing ^11B NMR analysis for the stability of 4NBA:diol complexes at phosphate buffer, 0.1 M, pH 7.4, 37° C. […] Solids were then separated via centrifugation and freeze dried. Samples were dissolved in DMSO-d^6 at a concentration of 10 mM and were tested at room temperature.\nComplexation of DP3-Insulin with PBA was studied with ^11B NMR between 4NBA, 1TBA and selected diols (Table 2)."}, "[6]": {"details": "traditional phenylboronic acid; cited from earlier work"}, "[7]": {"details": "in vivo; cited from earlier work"}, "[8]": {"details": "pH 7.4, PBA:Diol 1:2, PBA 10 mM"}, "[9]": {"details": "pH 8.5, PBA:Diol 1:2, PBA 10 mM"}, "[10]": {"details": "pH 7.4, PBA:Diol 1:10, PBA 10 mM"}, "[11]": {"details": "pH 7.4, PBA:Diol 1:1, PBA 10 mM"}}}
{"molecule": "[N-]=[N+]=N[C@@H]1O[C@H](CO)[C@@H](O[C@@H]2O[C@H](CO)[C@H](O)[C@H](O)[C@H]2O)[C@H](O)[C@H]1O", "note": "[1-Azido-1-deoxy-beta-D-lactopyranoside]", "values": [{"measurement": "Complex %", "setting": "[1]; [8]", "value": 4.0, "unit": "%"}, {"measurement": "Complex %", "setting": "[1]; [9]", "value": 8.3, "unit": "%"}]}
{"molecule": "CCc1ccc(O)c(O)c1", "note": "[4EC]", "values": [{"measurement": "Diol-PBA Complex %", "setting": "[2]", "value": 87, "unit": "%"}, {"measurement": "Diol-PBA Complex %", "setting": "[3]; 1TBA, pH 8.5, PBA:Diol 1:1, acetonitrile/PBS, room temperature", "value": 75, "unit": "%"}, {"measurement": "complexation ratio", "setting": "[3]; pH of 7.5, PBA not specified (1TBA and 4NBA named)", "value": 10, "unit": "%"}]}
{"molecule": "COc1ccc(CN(C2CCCCC2)S(=O)(=O)c2ccc(B(O)O)cc2)cc1", "note": "[4NBA, 4-(N-cyclohexyl-N-(4-methoxybenzyl)sulfamoyl)phenylboronic acid]", "values": [{"measurement": "solubility and glucose response range", "setting": "[4]", "value": "low solubility and response range within expected diabetic glucose levels"}]}
{"molecule": "[N-]=[N+]=NC[C@@H](O)[C@H](O)[C@H](O)[C@@H](O)C=O", "note": "[6-azido-6-deoxy-D-galactose]", "values": [{"measurement": "Complex %", "setting": "[1]; [8]", "value": 17.6, "unit": "%"}, {"measurement": "Complex %", "setting": "[1]; [9]", "value": 74.9, "unit": "%"}]}
{"molecule": "[N-]=[N+]=Nc1nc2c(N)ncnc2n1[C@@H]1O[C@H](CO)[C@@H](O)[C@H]1O", "note": "[8-Azido-Adenoside]", "values": [{"measurement": "Complex %", "setting": "[1]; [8]", "value": 47.6, "unit": "%"}, {"measurement": "Complex %", "setting": "[1]; pH 7.4, PBA:Diol 1:2, PBA 10 mM, listed as D", "value": 48, "unit": "%"}, {"measurement": "Complex %", "setting": "[1]; [9]", "value": 61.6, "unit": "%"}]}
{"molecule": "[N-]=[N+]=N[C@H]1O[C@H](CO)[C@@H](O)[C@H](O)[C@@H]1O", "note": "[Alpha-D-Mannopyranosyl azide]", "values": [{"measurement": "Complex %", "setting": "[1]; [8]", "value": 4.2, "unit": "%"}, {"measurement": "Complex %", "setting": "[1]; [9]", "value": 22.5, "unit": "%"}]}
{"molecule": "NCCc1ccc(O)c(O)c1", "note": "[Dopamine]", "values": [{"measurement": "Complex %", "setting": "[1]; [8]", "value": 38.7, "unit": "%"}, {"measurement": "Complex %", "setting": "[1]; pH 7.4, PBA:Diol 1:2, PBA 10 mM, listed as E", "value": 39, "unit": "%"}, {"measurement": "Complex %", "setting": "[1]; [10]", "value": 58.1, "unit": "%"}, {"measurement": "Complex %", "setting": "[1]; [9]", "value": 100.0, "unit": "%"}]}
{"molecule": "O=C(CO)[C@@H](O)[C@H](O)[C@H](O)CO", "note": "[Frucrose]", "values": [{"measurement": "Complex %", "setting": "[1]; [11]", "value": 27.4, "unit": "%"}, {"measurement": "Complex %", "setting": "[1]; [8]", "value": 34.9, "unit": "%"}, {"measurement": "Complex %", "setting": "[1]; pH 7.4, PBA:Diol 1:2, PBA 10 mM, listed as Fructose", "value": 35, "unit": "%"}, {"measurement": "Complex %", "setting": "[1]; [10]", "value": 44.9, "unit": "%"}, {"measurement": "Complex %", "setting": "[1]; [9]", "value": 67.3, "unit": "%"}, {"measurement": "degree of complexation with 4NBA", "setting": "[2]", "value": "~100", "unit": "%"}, {"measurement": "complexed form remaining", "setting": "[5]", "value": "above 50%"}]}
{"molecule": "O=C[C@H](O)[C@@H](O)[C@H](O)[C@H](O)CO", "note": "[Glucose]", "values": [{"measurement": "Complex %", "setting": "[1]; [11]", "value": 4.0, "unit": "%"}, {"measurement": "Complex %", "setting": "[1]; [8]", "value": 11.0, "unit": "%"}, {"measurement": "Complex %", "setting": "[1]; pH 7.4, PBA:Diol 1:2, PBA 10 mM, listed as glucose", "value": 11, "unit": "%"}, {"measurement": "Complex %", "setting": "[1]; [10]", "value": 22.8, "unit": "%"}, {"measurement": "Complex %", "setting": "[1]; [9]", "value": 49.4, "unit": "%"}, {"measurement": "Complex %", "setting": "[1]; pH 8.5, PBA:Diol 1:2, PBA 10 mM, listed as glucose", "value": "up to 50%"}, {"measurement": "degree of complexation with 4NBA", "setting": "[2]", "value": 74, "unit": "%"}, {"measurement": "complexed form remaining", "setting": "[5]", "value": "less than 10%"}]}
{"molecule": "OB(O)c1ccccc1", "note": "[phenylboronic acid]", "values": [{"measurement": "pKa", "setting": "[6]", "value": "approximately 8.9"}]}
{"molecule": "Lispro: fast acting insulin where B29 lysine and B28 proline have been switched", "values": [{"measurement": "duration of action", "setting": "[7]", "value": "4 to 6", "unit": "h"}, {"measurement": "onset time", "setting": "[7]", "value": "5 to 15", "unit": "min"}, {"measurement": "peak action", "setting": "[7]", "value": "30 to 90", "unit": "min"}]}
{"molecule": "Maltoheptaose", "values": [{"measurement": "Complex %", "setting": "[1]; [11]", "value": 7.5, "unit": "%"}, {"measurement": "Complex %", "setting": "[1]; pH 8.5, PBA:Diol 1:1, PBA 10 mM", "value": 4.0, "unit": "%"}]}
{"molecule": "azido-pentanoic-DOPA-GLY-DOPA-GLY-DOPA-GLY-NH2 [DP3-peptides]", "values": [{"measurement": "Diol-PBA Complex %", "setting": "[2]", "value": 91, "unit": "%"}]}
{"molecule": "glargine", "values": [{"measurement": "time basal level of insulin is maintained", "setting": "[7]", "value": "up to 24 hours"}]}
